Results published in patent publication US10131661B2, “High-solubility acetone-added pyrroloquinoline quinone salt” (Mitsubishi Gas Chemical Company, Inc., priority 2015, dated 2018).
In brackets after ≈: the same amount, converted by molar mass.

Tests used:
[1] = Storage stability in a solid state, visual check after 1 month; assay type: physicochemical
Protocol: The HOP alkali metal salt fabricated in each Example was subjected to cold storage (4° C.) and room-temperature storage (23° C.) in a solid state, and changes after a lapse of 1 month were visually checked.

[2] = tested on: Human uterine cancer cells, HeLa cells; test: Cell activity test (cell number by Cell Counting Kit 8); assay type: cell-based; conditions: 2 days
Protocol: Human uterine cancer cells, HeLa cells, were scattered on 96 wells so as to be 1,000 cells/well, and were cultivated in a DMEM (Invitrogen Corp.)+10% FBS culture medium under the condition of a 5% CO2 concentration and 37° C. in an incubator for one night. Thereafter, the HOP alkali metal salt fabricated in each Example was added to the culture medium so that the concentration of the HOP alkali metal salt became 4.9 mg/L and 19.5 mg/L. Further the cultivation was continued further for 2 days, and thereafter, the culture medium was removed from the wells; the well interiors were washed; and the number of the cells in the wells were measured by using a Cell Counting Kit 8 manufactured by Dojindo Laboratories. There are shown in the following Table the results in the case where the number of the cells when no HOP alkali metal salt was added to the culture medium was taken to be 100.

physchem = conditions: 30 °C, water, thermodynamic from solid
Protocol: (§1) Water in such an amount that the HOP alkali metal salt fabricated in each Example remained undissolved was added to 100 mg of the HOP alkali metal salt. The resultant solution was allowed to stand still at 30° C. for 1 hour or more. Then, the solution was centrifugally separated to thereby separate a supernatant liquid and the HOP alkali metal salt remaining undissolved, and thereafter, the supernatant was diluted and the absorbance at 360 nm was measured. The solubility was calculated from the obtained absorbance.

[3] = Chemical stability: color change on mixing with ascorbic acid aqueous solution; assay type: physicochemical; conditions: 10 mg sample, 200 μl of 10 mass % ascorbic acid aqueous solution
Protocol: [Chemical Stability] The HOP disodium fabricated in Example 1 and pyrroloquinoline quinone disodium were tested. 10 mg of the each sample was put in a test tube, and 200 μl of a 10 mass % ascorbic acid aqueous solution was mixed.

[4] = Measurement of the solubility (30° C.) of a HOP alkali metal salt to water; conditions: 1 hour or more, absorbance at 360 nm
Protocol: as §1

Row | Compound | Cold Storage (4° C.): visual change [1] | Room-Temperature Storage (23° C.): visual change [1] | further results
1 | CC(=O)CC1(O)C(=O)c2cc(C(=O)[O-])[nH]c2-c2c(C(=O)[O-])cc(C(=O)[O-])nc21.[Li+].[Li+].[Li+] (racemic) [HOP trilithium] | no change | – | –
2 | CC(=O)CC1(O)C(=O)c2cc(C(=O)[O-])[nH]c2-c2c(C(=O)[O-])cc(C(=O)[O-])nc21.[Na+].[Na+].[Na+] (racemic) [HOP trisodium] | no change | change to brown | number of the cells (no addition taken to be 100) ([2]; 4.9 mg/L): 128; number of the cells (no addition taken to be 100) ([2]; 19.5 mg/L): 121
3 | CC(=O)CC1(O)C(=O)c2cc(C(=O)O)[nH]c2-c2c(C(=O)O)cc(C(=O)O)nc21 (centres unmarked) [HOP free form, 5-Hydroxy-4-oxo-5-(2-oxopropyl)-4,5-dihydro-1H-pyrrolo[2,3-f]quinoline-2,7,9-tricarboxylic acid, reference compound] | no change | – | number of the cells (no addition taken to be 100) ([2]; 4.9 mg/L): 95; number of the cells (no addition taken to be 100) ([2]; 19.5 mg/L): 103; solubility (physchem): 2.9 mM (≈ 1130 µg/mL)
4 | CC(=O)CC1(O)C(=O)c2cc(C(=O)[O-])[nH]c2-c2c(C(=O)[O-])cc(C(=O)[O-])nc21.[K+].[K+].[K+] (centres unmarked) [HOP tripotassium] | no change | – | –
5 | O=C(O)c1cc(C(=O)O)c2c(n1)C(=O)C(=O)c1cc(C(=O)O)[nH]c1-2.[Na].[Na] [PQQ disodium, pyrroloquinoline quinone disodium, reference compound] | – | – | color change with ascorbic acid [3]: changed in the color to black; solubility (physchem): 7.5 mM
6 | O=C(O)c1cc(C(=O)O)c2c(n1)C(=O)C(=O)c1cc(C(=O)O)[nH]c1-2 [PQQ free form, pyrroloquinoline quinone] | – | – | solubility (physchem): 1 mM (≈ 330 µg/mL)
7 | O=C(O)c1cc(C(=O)O)c2c(n1)C(=O)C(=O)c1cc(C(=O)O)[nH]c1-2 [PQQ trisodium, reference compound] | – | – | Saturated Solubility [4]: 35 mM
8 | HOP 2.9 sodium | no change | no change | –
9 | HOP disodium hydrogen carbonate cocrystal | no change | no change | –
10 | HOP trisodium hydrogen carbonate cocrystal | no change | no change | –

Continued, in another order:

Row | Cold Storage (4° C.): visual change [1] | Room-Temperature Storage (23° C.): visual change [1] | Compound | further results
11 | no change | no change | HOP 2.5 sodium | –
12 | no change | no change | HOP dilithium | –
13 | no change | no change | HOP dipotassium | –
14 | no change | no change | HOP disodium | number of the cells (no addition taken to be 100) ([2]; 4.9 mg/L): 116; number of the cells (no addition taken to be 100) ([2]; 19.5 mg/L): 130; color change with ascorbic acid [3]: no large change in the color; Saturated Solubility [4]: 290 mM
